According to patent publication US6734003B2, “Phosphodiesterase 10” (Icos Corporation, priority 1998, dated 2004):
Like-named read-outs stand apart in the source and are kept apart here. Blank lines part the entries; values can stand above or below the compound they belong to.

What was measured:
PDE10 [1] = molecular target: T1, PDE10 (Homo sapiens, UniProt O76083, E580G); assay: Kinetic assays of recombinant PDE10 yeast extract (cAMP and cGMP hydrolysis); format: biochemical
T1 construct: The entire open reading frame of the PDE10 cDNA (clone FB94a) was placed into a yeast ADH vector; made in house; host or cells: Saccharomyces cerevisiae strain BJ2-54 (no endogenous PDE activity); 100,000 x g supernatant of the lysate, not purified
T1 sequence (O76083 1-466 isoform O76083-3 E453G): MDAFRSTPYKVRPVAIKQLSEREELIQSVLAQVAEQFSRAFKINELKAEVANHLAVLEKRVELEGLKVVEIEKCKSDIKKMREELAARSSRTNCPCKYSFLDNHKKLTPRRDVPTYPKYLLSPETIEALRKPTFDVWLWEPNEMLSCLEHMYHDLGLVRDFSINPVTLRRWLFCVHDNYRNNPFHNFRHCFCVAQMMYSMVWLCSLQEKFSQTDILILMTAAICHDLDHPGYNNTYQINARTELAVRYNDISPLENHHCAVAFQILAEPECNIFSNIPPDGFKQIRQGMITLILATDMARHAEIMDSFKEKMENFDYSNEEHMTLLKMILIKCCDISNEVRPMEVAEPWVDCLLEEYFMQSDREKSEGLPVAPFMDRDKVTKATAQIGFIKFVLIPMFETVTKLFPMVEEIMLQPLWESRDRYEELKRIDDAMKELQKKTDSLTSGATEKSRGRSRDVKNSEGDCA

PDE2 = PDE2 (Homo sapiens, UniProt O00408); details: target family PDE2; Podzuweit et al. 1995; cited from earlier work
Chain of PDE2 (O00408 whole entry): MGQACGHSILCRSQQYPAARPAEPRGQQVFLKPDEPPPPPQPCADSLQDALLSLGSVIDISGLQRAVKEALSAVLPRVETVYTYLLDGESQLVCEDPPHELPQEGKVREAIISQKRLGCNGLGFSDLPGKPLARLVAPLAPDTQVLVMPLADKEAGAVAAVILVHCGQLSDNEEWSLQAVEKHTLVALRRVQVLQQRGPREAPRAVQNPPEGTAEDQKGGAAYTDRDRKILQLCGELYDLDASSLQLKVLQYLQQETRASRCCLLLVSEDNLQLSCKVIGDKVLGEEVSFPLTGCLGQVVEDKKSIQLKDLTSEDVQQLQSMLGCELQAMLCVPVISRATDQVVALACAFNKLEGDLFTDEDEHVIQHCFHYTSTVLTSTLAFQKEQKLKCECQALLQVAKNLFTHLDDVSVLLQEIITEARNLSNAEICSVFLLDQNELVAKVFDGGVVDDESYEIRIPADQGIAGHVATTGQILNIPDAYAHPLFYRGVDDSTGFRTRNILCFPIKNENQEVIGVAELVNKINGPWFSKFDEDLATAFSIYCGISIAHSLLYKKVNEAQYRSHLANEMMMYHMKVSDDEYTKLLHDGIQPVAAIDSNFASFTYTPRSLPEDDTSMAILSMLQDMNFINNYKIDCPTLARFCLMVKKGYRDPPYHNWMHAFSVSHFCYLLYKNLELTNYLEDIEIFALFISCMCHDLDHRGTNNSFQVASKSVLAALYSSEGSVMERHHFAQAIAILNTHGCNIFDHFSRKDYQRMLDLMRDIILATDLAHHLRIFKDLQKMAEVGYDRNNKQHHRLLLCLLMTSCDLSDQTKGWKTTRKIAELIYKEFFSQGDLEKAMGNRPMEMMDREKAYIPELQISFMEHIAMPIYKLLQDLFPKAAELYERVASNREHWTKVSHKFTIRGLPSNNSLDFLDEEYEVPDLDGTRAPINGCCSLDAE

PDE10 [2] = molecular target: T1, PDE10; assay: PDE10 inhibition by isozyme-specific PDE inhibitors, cAMP as substrate; format: biochemical
Method: The entire open reading frame of the PDE10 cDNA (clone FB94a) was placed into a yeast ADH vector including the alcohol dehydrogenase promoter. The construct was built in two steps.
Following transformation into BJ2-54, a yeast strain lacking endogenous PDE activity, a colony was selected, streaked out on SC-leu plates and a single colony carrying the PDE10 construct was chosen for further characterization. Following overnight growth in SC-leu media the culture was diluted 1:250 in fresh SC-leu and grown overnight at 30° C. until it reached a density of 10^7 cells/ml. The cells were collected by centrifugation, washed once with YEP 3% glycerol media, resuspended in YEP containing 3% glycerol, and grown at 30° C. for another 24 hours. The cells were harvested by centrifugation, washed with water, and frozen at −70° C. until use. Prior to use, an aliquot of the yeast extract was analyzed by SDS PAGE. A protein specific to yeast carrying the PDE10 expression construct that migrated on the SDS PAGE gels with the expected mobility (55.5 kDa) was observed by Coomassie blue staining.
Yeast cells (1×10^10) were thawed with 200 μg/ml each of pepstatin A, leupeptin, and aprotinin 1 mM DTT, and 20 μg/ml calpain inhibitors (I and II). Two hundred μl of glass beads (0.5 mm, acid washed) were added, and the mixture was vortexed for eight cycles of 30 seconds each. Samples were cooled for 4.5 minutes at 4° C. between cycles. After lysis, 0.8 ml lysis buffer was added, the lysate separated from the beads, and the lysate centrifuged for 30 minutes at 100,000×g in a Beckman TL-100 tabletop centrifuge. The supernatant was aliquoted, frozen in dry ice/ethanol, and stored at −70° C.
Kinetic assays were performed on a BIOMEK® 1000 programmable robotic station (Beckman Instruments). […] The highest nucleotide concentration contained 1 to 1.5 million Cerenkov counts of ^32P-labeled substrate per assay. […] The enzyme dilution buffer consisted of 25 mM Tris-HCl pH 8.9, 5 μM ZnSO4 5 mM MgCl2, 0.1 mM DTT, 100 mM NaCl and 0.1 mg/ml BSA (Calbiochem; fatty acid free). Activity at each substrate concentration was derived from a linear fit of successive four-fold enzyme dilutions across the plate.
Assays were performed at 30° C. for 15 minutes. After 12 minutes, 5 μl snake venom from Crotalus atrox (15 mg/ml protein) was added to each reaction. Assays were stopped by addition 200 μl of charcoal suspension (25 mg/ml activated charcoal in 0.1 M monobasic potassium phosphate). The plate was centrifuged at 2600 rpm, and 200 μl of each supernatant was transferred into Microbeta® counting plates and counted on a WALLAC Microbeta® by Cerenkov counting. Data were evaluated with a predesigned Microsoft Excel® Spreadsheet, and the kinetic parameters were fitted to a Michaelis-Menton model using the program Table Curve® from Jandel Scientific.

PDE4 = details: target family PDE4; Bolger et al. 1993; cited from earlier work
PDE3 = details: target family PDE3; Manganiello et al. 1990; cited from earlier work
non-specific = details: Coste and Grodin 1995, read-out: Target Family IC50; cited from earlier work
PDE5 = PDE5 (Homo sapiens, UniProt O76074); details: target family PDE5; Coste and Grodin 1995; cited from earlier work
[3] = cAMP as substrate, recombinant PDE10 (clone FB94a) yeast extract

Compound: CCCCCCC(C(C)O)n1cnc2c(N)ncnc21 (stereo not drawn) [EHNA, erythro-9-(2-hydroxy-3-nonyl)adenine]
IC50 (PDE2): 0.8 µM
IC50 (PDE10 [2]): 477 µM

Compound: CN(C(=O)CCCOc1ccc2[nH]c(=O)ccc2c1)C1CCCCC1 [Cilostamide]
IC50 (PDE3): 0.04 to 0.9 µM
IC50 (PDE10 [2]): 100 µM

Compound: CCCOc1ccc(NS(C)(=O)=O)cc1-c1nc2c(c(C)nn2C)c(=O)[nH]1 [DMPPO]
IC50 (PDE10 [2]; [3]): 9 µM
IC50 (PDE5): 0.003 µM

Second part, led by results:

hydrolytic activity in the extract (PDE10 [1]; PDE10 yeast extract): 0.035 (±0.01) μmol/min/mg
Km (PDE10 [1]; substrate of PDE10, 30° C., Michaelis-Menton fit): 5 nM
Compound: Nc1nc2c(ncn2[C@@H]2O[C@@H]3COP(=O)(O)O[C@H]3[C@H]2O)c(=O)[nH]1 [cGMP]

IC50 (PDE10 [2]): 529 µM
Compound: COc1ccc(C2CNC(=O)C2)cc1OC1CCCC1 (stereo not drawn) [Rolipram, rolipram]

IC50 (PDE10 [2]; [3]): 59 µM
Compound: isobutyl methyl xanthine [IBMX]
IC50 (non-specific): 2 to 20 µM
